From ChEMBL document CHEMBL1129054, “Conformationally constrained analogues of diacylglycerol. 13. Protein kinase C ligands based on templates derived from 2,3-dideoxy-L-erythro(threo)-hexono-1,4-lactone and 2-deoxyapiolactone” (J Med Chem, 1996)

target: Protein kinase C alpha type (Homo sapiens, UniProt P17252); assay: Displacement of [3H-20] phorbol 12,13-dibutyrate(PDBU) from recombinant Protein kinase C alpha

Ki [µM]	Compound
10.4	CCCCCCCCCCCCCCOC(=O)C[C@]1(CCO)COC(=O)C1
18.4	CCCCCCCCCCCCCCOC(=O)C[C@@]1(CCO)COC(=O)C1
16.9	CCCCCCCCCCCCCCOC(=O)C[C@@]1(CO)COC(=O)C1
28	CCCCCCCCCCCCCC(=O)O[C@@H](CO)[C@H]1CCC(=O)O1
1.07	CCCCCCCCCCCCCC(=O)O[C@@H](CO)[C@@H]1CCC(=O)O1
24.1	CCCCCCCCCCCCCCOC(=O)CC1(CCO)COC(=O)C1 (single isomer, unassigned)
